Data as given in US6998397B2, “Method for decreasing cholesterol level in blood” (Drebsk Comptech, Inc., priority 2004, dated 2006).

Key:
[1] = test system: White rats fed with a standard food and drink diet; experiment: Total blood serum cholesterol in rats on normal diet, 36-week intragastrular administration; format: in vivo, rat; conditions: 36 weeks
Experimental: White rats (mails) were fed with a standard food and drink diet. Experimental and control groups (7 animals in each) were formed by randomization using body mass as the principal feature. EBI was administered to the experimental animals intragastrularly as a water solution during 36 weeks. The control group received an equivalent amount of placebo. At the end of each experiment, animals were decapitated under light ether narcosis 18 hours after food withdrawal. Total cholesterol in blood serum was measured enzymatically.

[2] = test system: rats fed with high-cholesterol diet; experiment: Lipid metabolism and redox-vitamins in blood serum of rats under high-cholesterol diet, four-week administration; format: in vivo, rat; conditions: 4 weeks; for HDL / LDL / VLDL: blood serum lipoprotein fraction; for HDL / LDL / VLDL / Total cholesterol / Triglycerids / Vitamin A / Vitamin E: high-cholesterol diet; for Total cholesterol / Triglycerids / Vitamin A / Vitamin E: blood serum
Experimental: Forty white rats (mails) were divided for four groups (ten in each) by randomization using body mass as the principal feature. One group (control) was fed with a normal diet, and three others were fed with a high-cholesterol diet. The latter once received three times per week special food with the following additives: cholesterol (500 mg/kg), vitamin D3 (10000 ME/kg) and pork fat (1000 mg/kg). As a drink, these animals daily received a mixture (1:1) of glucose (5% water solution) and sodium chloride (2.5% water solution). Two groups of animals fed with the high-cholesterol diet received daily a water solution of EBI intragastrularly, and the control group received an equivalent amount of placebo. At the end of each experiment, animals were decapitated under light ether narcosis 18 hours after food withdrawal. Total cholesterol and triglycerides in blood serum were measured enzymatically. Lipoproteins were divided by electrophoresis in agar gel, then dyed with lipid-specific stuff and measured by a direct densitometry. Vitamins A and E were measured by fluorimetric analysis.

[3] = test system: Volunteers with a high level of cholesterol; experiment: Total cholesterol in volunteers with high cholesterol after four-week administration; format: in vivo, human
Experimental: Volunteers with a high level of cholesterol were selected for clinical study. During the experiment, each patient had their normal personal diet without any special limitations (fats, high-cholesterol food, etc.). All the patients received daily EBI (2.5 mcg) dissolved in ethanol (0.03 ml) and mixed with water (50 ml). Administering the EBI was not adjusted with the meal-receiving time.

Solubility in water = format: physicochemical
Source text: Compositions useful for administration of EBI can be easily prepared. The simplest way is the use of water-based solutions. […] Preferable concentrations are laying in the range of 10^−5–10^−6% that corresponds to 0.1–0.01 mcg/ml. […] Other drinkable or eatable forms and non-aqueous carriers may also be used.

mice = conditions: acute toxicity; cited from earlier work
rats = conditions: acute toxicity; cited from earlier work
[4] = prolonged and chronic experiments; cited from earlier work
[5] = 2 mcg/kg daily, listed as 24-epibrassinolide
[6] = 20 mcg/kg daily, listed as 24-epibrassinolide

SMILES: CC(C)[C@@H](C)[C@@H](O)[C@H](O)[C@@H](C)[C@H]1CC[C@H]2[C@@H]3COC(=O)[C@H]4C[C@H](O)[C@H](O)C[C@]4(C)[C@H]3CC[C@]12C [EBI, 24-epibrassinolide]
- total blood serum cholesterol ([1]; 0.2 mcg/kg intragastrular): 62.17 ± 5.54 mg/deciliter
- total blood serum cholesterol, percentage change vs control ([1]; 0.2 mcg/kg intragastrular): −9%
- total blood serum cholesterol ([1]; 2 mcg/kg intragastrular): 57.81 ± 6.34 mg/deciliter
- total blood serum cholesterol, percentage change vs control ([1]; 2 mcg/kg intragastrular): −15%
- total blood serum cholesterol ([1]; 20 mcg/kg intragastrular): 54.25 ± 3.17 mg/deciliter
- total blood serum cholesterol, percentage change vs control ([1]; 20 mcg/kg intragastrular): (−20%)
- total blood serum cholesterol ([1]; 200 mcg/kg intragastrular): 51.08 ± 5.15 mg/deciliter
- total blood serum cholesterol, percentage change vs control ([1]; 200 mcg/kg intragastrular): (−25%)
- lower cholesterol (lowering depending on dose) ([1]; normal cholesterol): 9–25%
- HDL, percentage related to the high-cholesterol diet ([2]; 2 mcg/kg daily): −1%
- LDL, percentage related to the high-cholesterol diet ([2]; 2 mcg/kg daily): 0%
- Total cholesterol, percentage related to the high-cholesterol diet ([2]; 2 mcg/kg daily): (−34%)
- Triglycerids, percentage related to the high-cholesterol diet ([2]; 2 mcg/kg daily): −58%
- VLDL, percentage related to the high-cholesterol diet ([2]; 2 mcg/kg daily): +9%
- Vitamin A, percentage related to the high-cholesterol diet ([2]; 2 mcg/kg daily): 16%
- Vitamin E, percentage related to the high-cholesterol diet ([2]; 2 mcg/kg daily): 53%
- reduction of plasma concentration of total cholesterol vs high-cholesterol diet without EBI ([2]; 2 mcg/kg daily): 34%
- reduction of plasma concentration of triglycerides vs high-cholesterol diet without EBI ([2]; 2 mcg/kg daily): 58%
- Vitamin A, percentage related to the high-cholesterol diet [2, 5]: +16%
- Vitamin E, percentage related to the high-cholesterol diet [2, 5]: (+53%)
- HDL, percentage related to the high-cholesterol diet ([2]; 20 mcg/kg daily): 47%
- LDL, percentage related to the high-cholesterol diet ([2]; 20 mcg/kg daily): (−11%)
- Total cholesterol, percentage related to the high-cholesterol diet ([2]; 20 mcg/kg daily): (−44%)
- Triglycerids, percentage related to the high-cholesterol diet ([2]; 20 mcg/kg daily): −68%
- VLDL, percentage related to the high-cholesterol diet ([2]; 20 mcg/kg daily): −11%
- Vitamin A, percentage related to the high-cholesterol diet ([2]; 20 mcg/kg daily): 30%
- Vitamin E, percentage related to the high-cholesterol diet ([2]; 20 mcg/kg daily): 51%
- reduction of low-density lipoprotein vs high-cholesterol diet only ([2]; 20 mcg/kg daily): 11%
- reduction of plasma concentration of total cholesterol vs high-cholesterol diet only ([2]; 20 mcg/kg daily): 44%
- reduction of plasma concentration of triglycerides vs high-cholesterol diet only ([2]; 20 mcg/kg daily): 68%
- HDL, percentage related to the high-cholesterol diet [2, 6]: (+47%)
- Vitamin A, percentage related to the high-cholesterol diet [2, 6]: (+30%)
- Vitamin E, percentage related to the high-cholesterol diet [2, 6]: (+51%)
- decrease of VLDL level ([2]; 20 mcg/kg): 11%
- HDL ([2]; 2 mcg/kg daily): 19.45 ± 1.14%
- LDL ([2]; 2 mcg/kg daily): 75.24 ± 1.23%
- VLDL ([2]; 2 mcg/kg daily): 5.31 ± 0.24%
- HDL ([2]; 20 mcg/kg daily): 28.72 ± 1.22 %
- LDL ([2]; 20 mcg/kg daily): 66.97 ± 1.23 %
- VLDL ([2]; 20 mcg/kg daily): 4.33 ± 0.45%
- Total cholesterol ([2]; 2 mcg/kg daily): 64.94 ± 5.15 mg/deciliter
- Triglycerids ([2]; 2 mcg/kg daily): 0.80 ± 0.09 mmol/L
- Vitamin A ([2]; 2 mcg/kg daily): 0.26 ± 0.02 mmol/L
- Vitamin E ([2]; 2 mcg/kg daily): 1.90 ± 0.14 mmol/L
- Total cholesterol ([2]; 20 mcg/kg daily): 55.04 ± 4.36 mg/deciliter
- Triglycerids ([2]; 20 mcg/kg daily): 0.60 ± 0.04 mmol/L
- Vitamin A ([2]; 20 mcg/kg daily): 0.29 ± 0.01 mmol/L
- Vitamin E ([2]; 20 mcg/kg daily): 1.88 ± 0.10 mmol/L
- decrease of total cholesterol ([2]; doses of 2 and 20 mcg/kg): 34–44%
- decrease of triglycerides ([2]; doses of 2 and 20 mcg/kg): 58–68%
- plasma total cholesterol lower than the starting level, on average ([3]; 6 volunteers with hypercholesterolemia, 2.5 mcg daily, 4 weeks): 38%
- Total Cholesterol in Plasma (after 4 weeks) ([3]; humans, 2.5 mcg daily oral, start 287.1 ± 38.8): 177.8 ± 12.3 mg/deciliter
- Percentage Change in Cholesterol ([3]; humans, 2.5 mcg daily, 4 weeks, vs start): −38%
- solubility in water (Solubility in water): relatively small
- LD50 (mice): more than 1000 mg/kg
- LD50 (rats): more than 2000 mg/kg
- postponed negative effects [4]: no postponed negative effects
